IC50 and EC50 data for six molecules are collected here from ChEMBL document CHEMBL1121876, “gamma-Aminobutyric acid agonists, antagonists, and uptake inhibitors. Design and therapeutic aspects” (J Med Chem, 1981).

For assay [1], the target named is GABA-A receptor; anion channel. Put plainly: In vitro inhibition of [3H]muscimol binding to Gamma-aminobutyric acid receptor of human astrocytes.
Assay [2] has as its target GABA-A receptor; anion channel. In words: In vitro inhibition of [3H]P4S binding to Gamma-aminobutyric acid receptor of human astrocytes.
The nature of assay [3]: Inhibition of glial GABA uptake. The assay is classed as functional.
Assay [4] addresses GABA-A receptor; anion channel. In words: In vitro inhibition of [3H]GABA binding to Gamma-aminobutyric acid receptor of human astrocytes.
Assay [5] addresses GABA-A receptor; anion channel. Put plainly: In vitro inhibition of [3H]isoguvacine binding to Gamma-aminobutyric acid receptor of human astrocytes.
For assay [6], the target named is GABA-A receptor; anion channel. In words: Activation of binding of [3H]diazepam to Gamma-aminobutyric acid receptor. The assay is classed as protein-complex assay.
Assay [7] deals with GABA-A receptor; anion channel. In words: In vitro inhibition of [3H]-THIP binding to Gamma-aminobutyric acid receptor of human astrocytes.
Assay [8] in a line: Inhibition of neuronal GABA uptake. It counts as functional.

Turning to `C[C@H](N)CCC(=O)O`, the IC50 in assay [1] came out at 2.5 µM; in assay [2] it was 24 µM; in assay [3] it was 1000 µM; in assay [4] it was 4.7 µM; in assay [5], 5.2 µM; in assay [7], 2.9 µM. This molecule also yielded an IC50 in assay [8] of 750 µM. This molecule displayed an EC50 in assay [6] of 550 µM.

For `C[C@@H](N)CCC(=O)O`, the 50% inhibitory concentration (IC50) in assay [1] was 4.3 µM; in assay [2], 21 µM; in assay [3], 120 µM; in assay [4], 5 µM; in assay [5], 6.1 µM; in assay [7] it was 2.5 µM. In assay [8], this molecule registered an IC50 of 200 µM. A half-maximal response in assay [6] (EC50) required 410 µM.

Turning to `C[C@H](N)c1cc(O)no1`, the IC50 in assay [1] is 0.51 µM; in assay [2], 5.8 µM; in assay [3], over 1000 µM; in assay [4], 0.64 µM; in assay [5], 1.6 µM; in assay [7] it was 0.74 µM. Also, the IC50 in assay [8] is over 1000 µM. In assay [6], it took 230 µM to reach a half-maximal effect (EC50).

For `C[C@@H](N)c1cc(O)no1`, the IC50 was 8.9 µM in assay [1]; 83 µM in assay [2]; over 1000 µM in assay [3]; 19 µM in assay [4]; 8.2 µM in assay [5]; 9.5 µM in assay [7]. The IC50 in assay [8] is over 1000 µM. Also, the midpoint of the response in assay [6], the EC50, lay at 2300 µM.

On to `C[C@H](N)/C=C/C(=O)O`, for which the IC50 is 3.5 µM in assay [1]; 21 µM in assay [2]; over 5000 µM in assay [3]; 4.1 µM in assay [4]; 2.5 µM in assay [5]; 2.6 µM in assay [7]. This molecule also gave an IC50 in assay [8] of over 5000 µM. In addition, the response in assay [6] was half-maximal at 390 µM (EC50).

For the molecule `C[C@@H](N)/C=C/C(=O)O`, the IC50 in assay [1] was 145 µM; in assay [2], 670 µM; in assay [3], 500 µM; in assay [4], 148 µM; in assay [5] it was 84 µM; in assay [7], 88 µM. Moreover, 160 µM corresponded to half-maximal inhibition in assay [8] (IC50). This molecule yielded an EC50 in assay [6] of over 2000 µM.

Broadly, the IC50 is the concentration that inhibits the measured activity by half. As usually defined, the EC50 is the concentration needed to bring the measured effect to its halfway point. Low values mean greater potency, high ones weaker potency.
